With `CC(=O)Oc1ccc(C(c2ccc(OC(C)=O)cc2)c2ccccn2)cc1` as the compound, how does the solubility (mole fraction) (in 1,4-dioxane, 288.15 K) read?
Its solubility (mole fraction) is 0.00241.

And the solubility (mole fraction) (in 1,4-dioxane, 293.15 K)?
The solubility (mole fraction) was 0.00274.

And the solubility (mole fraction) (in 1,4-dioxane, 298.15 K)?
The solubility (mole fraction) was 0.00307.

What about the solubility (mole fraction) (in 1,4-dioxane, 303.15 K) of the same compound?
Its solubility (mole fraction) is 0.00343.

And the solubility (mole fraction) (in 1,4-dioxane, 308.15 K)?
The solubility (mole fraction) was 0.00378.

What about the solubility (mole fraction) (in 1,4-dioxane, 313.15 K) of the same compound?
The solubility (mole fraction) was 0.00424.

And the solubility (mole fraction) (in DMF, 273.15 K)?
The solubility (mole fraction) was 0.00201.

What about the solubility (mole fraction) (in DMF, 278.15 K) of the same compound?
The solubility (mole fraction) was 0.00228.

What about the solubility (mole fraction) (in DMF, 283.15 K) of the same compound?
The solubility (mole fraction) was 0.00255.

What about the solubility (mole fraction) (in DMF, 288.15 K) of the same compound?
Its solubility (mole fraction) is 0.00291.

And the solubility (mole fraction) (in DMF, 293.15 K)?
Its solubility (mole fraction) is 0.00325.

What about the solubility (mole fraction) (in DMF, 298.15 K) of the same compound?
Its solubility (mole fraction) is 0.00368.

What about the solubility (mole fraction) (in DMF, 303.15 K) of the same compound?
Its solubility (mole fraction) is 0.00407.

And the solubility (mole fraction) (in DMF, 308.15 K)?
The solubility (mole fraction) was 0.00447.

And the solubility (mole fraction) (in DMF, 313.15 K)?
The solubility (mole fraction) was 0.00496.

What about the solubility (mole fraction) (in NMP, 273.15 K) of the same compound?
The solubility (mole fraction) was 0.00187.

What about the solubility (mole fraction) (in NMP, 278.15 K) of the same compound?
Its solubility (mole fraction) is 0.0021.

What about the solubility (mole fraction) (in NMP, 283.15 K) of the same compound?
The solubility (mole fraction) was 0.00236.

And the solubility (mole fraction) (in NMP, 288.15 K)?
The solubility (mole fraction) was 0.00264.

What about the solubility (mole fraction) (in NMP, 293.15 K) of the same compound?
The solubility (mole fraction) was 0.00295.

And the solubility (mole fraction) (in NMP, 298.15 K)?
The solubility (mole fraction) was 0.0033.

What about the solubility (mole fraction) (in NMP, 303.15 K) of the same compound?
The solubility (mole fraction) was 0.00372.

And the solubility (mole fraction) (in NMP, 308.15 K)?
Its solubility (mole fraction) is 0.00418.

What about the solubility (mole fraction) (in NMP, 313.15 K) of the same compound?
Its solubility (mole fraction) is 0.00474.

And the solubility (mole fraction) (in acetone, 273.15 K)?
Its solubility (mole fraction) is 0.00126.

What about the solubility (mole fraction) (in acetone, 278.15 K) of the same compound?
Its solubility (mole fraction) is 0.00153.

And the solubility (mole fraction) (in acetone, 283.15 K)?
The solubility (mole fraction) was 0.00181.

What about the solubility (mole fraction) (in acetone, 288.15 K) of the same compound?
The solubility (mole fraction) was 0.00212.

What about the solubility (mole fraction) (in acetone, 293.15 K) of the same compound?
Its solubility (mole fraction) is 0.00246.

What about the solubility (mole fraction) (in acetone, 298.15 K) of the same compound?
The solubility (mole fraction) was 0.00281.

And the solubility (mole fraction) (in acetone, 303.15 K)?
Its solubility (mole fraction) is 0.00318.

And the solubility (mole fraction) (in acetone, 308.15 K)?
Its solubility (mole fraction) is 0.00359.

And the solubility (mole fraction) (in acetone, 313.15 K)?
The solubility (mole fraction) was 0.00403.

What about the solubility (mole fraction) (in acetonitrile, 273.15 K) of the same compound?
Its solubility (mole fraction) is 0.000983.

What about the solubility (mole fraction) (in acetonitrile, 278.15 K) of the same compound?
The solubility (mole fraction) was 0.00115.

And the solubility (mole fraction) (in acetonitrile, 283.15 K)?
The solubility (mole fraction) was 0.00136.

And the solubility (mole fraction) (in acetonitrile, 288.15 K)?
Its solubility (mole fraction) is 0.0016.

And the solubility (mole fraction) (in acetonitrile, 293.15 K)?
Its solubility (mole fraction) is 0.00185.

What about the solubility (mole fraction) (in acetonitrile, 298.15 K) of the same compound?
Its solubility (mole fraction) is 0.00215.

What about the solubility (mole fraction) (in acetonitrile, 303.15 K) of the same compound?
Its solubility (mole fraction) is 0.00243.

What about the solubility (mole fraction) (in acetonitrile, 308.15 K) of the same compound?
The solubility (mole fraction) was 0.00274.

What about the solubility (mole fraction) (in acetonitrile, 313.15 K) of the same compound?
Its solubility (mole fraction) is 0.00308.

What about the solubility (mole fraction) (in ethanol, 273.15 K) of the same compound?
The solubility (mole fraction) was 4.5e-05.

And the solubility (mole fraction) (in ethanol, 278.15 K)?
Its solubility (mole fraction) is 5.8e-05.

And the solubility (mole fraction) (in ethanol, 283.15 K)?
The solubility (mole fraction) was 7.5e-05.

And the solubility (mole fraction) (in ethanol, 288.15 K)?
Its solubility (mole fraction) is 9.1e-05.

What about the solubility (mole fraction) (in ethanol, 293.15 K) of the same compound?
The solubility (mole fraction) was 0.00011.

And the solubility (mole fraction) (in ethanol, 298.15 K)?
The solubility (mole fraction) was 0.00013.

And the solubility (mole fraction) (in ethanol, 303.15 K)?
Its solubility (mole fraction) is 0.000159.

What about the solubility (mole fraction) (in ethanol, 308.15 K) of the same compound?
The solubility (mole fraction) was 0.000194.

And the solubility (mole fraction) (in ethanol, 313.15 K)?
The solubility (mole fraction) was 0.00024.

What about the solubility (mole fraction) (in ethyl acetate, 273.15 K) of the same compound?
Its solubility (mole fraction) is 0.000724.

And the solubility (mole fraction) (in ethyl acetate, 278.15 K)?
Its solubility (mole fraction) is 0.000884.

What about the solubility (mole fraction) (in ethyl acetate, 283.15 K) of the same compound?
The solubility (mole fraction) was 0.00107.

What about the solubility (mole fraction) (in ethyl acetate, 288.15 K) of the same compound?
The solubility (mole fraction) was 0.00126.

And the solubility (mole fraction) (in ethyl acetate, 293.15 K)?
The solubility (mole fraction) was 0.00148.

What about the solubility (mole fraction) (in ethyl acetate, 298.15 K) of the same compound?
Its solubility (mole fraction) is 0.00171.

And the solubility (mole fraction) (in ethyl acetate, 303.15 K)?
The solubility (mole fraction) was 0.00198.

And the solubility (mole fraction) (in ethyl acetate, 308.15 K)?
Its solubility (mole fraction) is 0.00228.

What about the solubility (mole fraction) (in ethyl acetate, 313.15 K) of the same compound?
Its solubility (mole fraction) is 0.00263.

What about the solubility (mole fraction) (in isopropanol, 273.15 K) of the same compound?
Its solubility (mole fraction) is 3.8e-05.

What about the solubility (mole fraction) (in isopropanol, 278.15 K) of the same compound?
Its solubility (mole fraction) is 5.2e-05.

What about the solubility (mole fraction) (in isopropanol, 283.15 K) of the same compound?
Its solubility (mole fraction) is 6.5e-05.

What about the solubility (mole fraction) (in isopropanol, 288.15 K) of the same compound?
Its solubility (mole fraction) is 8.1e-05.

What about the solubility (mole fraction) (in isopropanol, 293.15 K) of the same compound?
Its solubility (mole fraction) is 9.8e-05.

And the solubility (mole fraction) (in isopropanol, 298.15 K)?
Its solubility (mole fraction) is 0.000118.

And the solubility (mole fraction) (in isopropanol, 303.15 K)?
Its solubility (mole fraction) is 0.000142.

And the solubility (mole fraction) (in isopropanol, 308.15 K)?
Its solubility (mole fraction) is 0.000166.

What about the solubility (mole fraction) (in isopropanol, 313.15 K) of the same compound?
The solubility (mole fraction) was 0.000204.

And the solubility (mole fraction) (in methanol, 273.15 K)?
The solubility (mole fraction) was 4.9e-05.

And the solubility (mole fraction) (in methanol, 278.15 K)?
The solubility (mole fraction) was 6.6e-05.

And the solubility (mole fraction) (in methanol, 283.15 K)?
Its solubility (mole fraction) is 8.1e-05.

What about the solubility (mole fraction) (in methanol, 288.15 K) of the same compound?
The solubility (mole fraction) was 0.000101.

What about the solubility (mole fraction) (in methanol, 293.15 K) of the same compound?
The solubility (mole fraction) was 0.000123.

What about the solubility (mole fraction) (in methanol, 298.15 K) of the same compound?
The solubility (mole fraction) was 0.000147.

And the solubility (mole fraction) (in methanol, 303.15 K)?
The solubility (mole fraction) was 0.000171.

What about the solubility (mole fraction) (in methanol, 308.15 K) of the same compound?
The solubility (mole fraction) was 0.000207.

What about the solubility (mole fraction) (in methanol, 313.15 K) of the same compound?
Its solubility (mole fraction) is 0.000254.

What about the solubility (mole fraction) (in n-butanol, 273.15 K) of the same compound?
Its solubility (mole fraction) is 7.1e-05.

And the solubility (mole fraction) (in n-butanol, 278.15 K)?
The solubility (mole fraction) was 8.8e-05.

What about the solubility (mole fraction) (in n-butanol, 283.15 K) of the same compound?
Its solubility (mole fraction) is 0.000106.

And the solubility (mole fraction) (in n-butanol, 288.15 K)?
The solubility (mole fraction) was 0.000131.

What about the solubility (mole fraction) (in n-butanol, 293.15 K) of the same compound?
Its solubility (mole fraction) is 0.00016.

And the solubility (mole fraction) (in n-butanol, 298.15 K)?
Its solubility (mole fraction) is 0.00019.

What about the solubility (mole fraction) (in n-butanol, 303.15 K) of the same compound?
Its solubility (mole fraction) is 0.000223.

And the solubility (mole fraction) (in n-butanol, 308.15 K)?
The solubility (mole fraction) was 0.000269.

And the solubility (mole fraction) (in n-butanol, 313.15 K)?
Its solubility (mole fraction) is 0.000324.

What about the solubility (mole fraction) (in n-propanol, 273.15 K) of the same compound?
The solubility (mole fraction) was 5.6e-05.

And the solubility (mole fraction) (in n-propanol, 278.15 K)?
The solubility (mole fraction) was 7.3e-05.

What about the solubility (mole fraction) (in n-propanol, 283.15 K) of the same compound?
Its solubility (mole fraction) is 9.2e-05.

And the solubility (mole fraction) (in n-propanol, 288.15 K)?
The solubility (mole fraction) was 0.000115.

What about the solubility (mole fraction) (in n-propanol, 293.15 K) of the same compound?
The solubility (mole fraction) was 0.000141.

What about the solubility (mole fraction) (in n-propanol, 298.15 K) of the same compound?
The solubility (mole fraction) was 0.00017.

And the solubility (mole fraction) (in n-propanol, 303.15 K)?
The solubility (mole fraction) was 0.000199.

And the solubility (mole fraction) (in n-propanol, 308.15 K)?
Its solubility (mole fraction) is 0.000242.

And the solubility (mole fraction) (in n-propanol, 313.15 K)?
Its solubility (mole fraction) is 0.000304.

And the solubility (mole fraction) (in toluene, 273.15 K)?
Its solubility (mole fraction) is 0.00044.

And the solubility (mole fraction) (in toluene, 278.15 K)?
The solubility (mole fraction) was 0.000533.

And the solubility (mole fraction) (in toluene, 283.15 K)?
The solubility (mole fraction) was 0.000648.

What about the solubility (mole fraction) (in toluene, 288.15 K) of the same compound?
Its solubility (mole fraction) is 0.00076.

What about the solubility (mole fraction) (in toluene, 293.15 K) of the same compound?
The solubility (mole fraction) was 0.000895.

And the solubility (mole fraction) (in toluene, 298.15 K)?
Its solubility (mole fraction) is 0.00105.

What about the solubility (mole fraction) (in toluene, 303.15 K) of the same compound?
Its solubility (mole fraction) is 0.00122.

What about the solubility (mole fraction) (in toluene, 308.15 K) of the same compound?
The solubility (mole fraction) was 0.00141.

What about the solubility (mole fraction) (in toluene, 313.15 K) of the same compound?
Its solubility (mole fraction) is 0.00161.

Reference: BigSolDB 2.1
